Legend:
[1] = test system: mDCs treated with 14-DHE co-cultured with OVA-specific naive CD4+ T cells; experiment: Antigen-specific Treg-inducing capacity of DCs treated with 14-DHE (Example 10); assay type: cell-based, mouse
Protocol: Various DCs were prepared similarly to (A). Next, naive CD4^+ T cells were sorted from DO11.10 mice (Charles River) having OVA-specific TCR, DCs were mixed with the sorted cells at DC:CD4^+ T=1:10 (the number of cells), and then the cells were co-cultured. At this time, the medium was supplemented with 0.5 ng/mL TGF-β1 and 0.1 μM OVA323-339 peptide and then culture was performed for 5 days. Subsequently, Treg generation efficiency was determined as in (A) above.
In a manner similar to that in Example 5, the Treg-inducing activity of mDCs treated with 14-DHE was measured. Similar measurement was also performed using DCs not treated with 14-DHE as a control.

[2] = test system: C57BL/6 mDCs co-cultured with BALB/c CD4+CD62L+ T cells; experiment: Cytokine profile of CD4+ T cells induced by DCs treated with 14-DHE, MLR (Example 11); assay type: cell-based, mouse; conditions: 14-DHE 3 μM, day 4 supernatant, vs control mDC
Protocol: In a manner similar to that described in the above Examples, bone marrow cells were prepared from C57BL/6 mouse thigh bone, and then dendritic cells were induced using Flt-3L. 14-DHE was added at 3 μM simultaneously with the initiation of culture. Seven days later, Salmonella typhosa-derived LPS (Sigma Aldrich) was added at 5 ng/mL and then 24 hours later, cells were recovered. Subsequently, CD11c^+CD11b^+ was set as a gate for mDCs and then recovered cells were sorted. Next, from the BALB/c mouse spleen, CD4^+CD62L^+ T cells were isolated using the CD4^+CD62L^+ T cell isolation kit II (mouse) (Miltenyi Biotec), followed by mixed culture at a ratio of mDC:CD4^+T cell of 1:5. As a control, mDC prepared in the absence of 14-DHE was used. A culture supernatant on day 4 of culture was recovered, and then TNF-α, IFN-γ, IL-6, IL-10, and IL-17 were measured by ELISA. As ELISA kits, Mouse TNF-α Ready-SET-Go! (eBioscience), a BD OptEIA Mouse IFN-γ ELISA set (BD Life Science), Mouse IL-6 Ready-SET-Go! (eBioscience), a BD OptEIA Mouse IL-10 ELISA set (BD Life Science), and Mouse IL-17 DuoSet ELISA (R&D Systems) were separately used.

[3] = test system: naive CD4+ T cells from BALB/c mouse spleen; experiment: Regulatory T-cell-inducing effect of 14-DHE on CD4+ naive T cells (Example 13); assay type: cell-based
Protocol: Naive CD4^+ T cells were isolated from BALB/c mouse spleen-derived cells using the CD4^+CD62L^+ T cell isolation kit II (mouse) (Miltenyi Biotec). CD4^+ T cells were seeded at a density of 5×10^5 cells/mL to 48-well plates (2.5×10^5 cells per well), and then 1 μg/mL anti-CD3 antibody and 0.2 μg/mL anti-CD28 antibody were added. At this time, 2 types of media (i.e., media with and without TGF-β) were used. 14-DHE was added at a concentration of 0, 50, 100, 500, and 1000 nM. Five days later, cells were recovered. The proportion of CD25^+FoxP3^+ cells in CD4^+ T cells was determined using a flow cytometer. Prior to flow cytometry, cell surface staining was performed using CD4-APC, CD25-FITC and CD3e-PerCP, cell membrane permeabilization treatment was performed using the FoxP3 staining buffer set (eBioscience), and then FoxP3-PE staining was performed.

[4] = test system: DCs induced from C57BL/6 mouse bone marrow cells; experiment: Timing and duration of the DC-activation-suppressing effect of 14-DHE (Example 14); assay type: cell-based
Protocol: In a manner similar to those of the Examples above, C57BL/6 mouse bone marrow cells were prepared and then DCs were induced using Flt-3. The concentration of the added 14-DHE was 3 μM in all cases. The drug residence time in the culture system was controlled by medium exchange. Inflammation was induced using 5 ng/mL LPS, and then the expression level of CD86 was measured using a flow cytometer, so that the characteristics of regulatory DCs were determined. At this time, the cells that had been treated with LPS and without 14-DHE were used as control cells. The median fluorescence intensity (Median Fluorescence Intensity: MFI) of CD86 in the cells treated with 14-DHE was divided by MFI of untreated cells. The determined values indicate: 1 or more, no effect (score: −); 0.7-0.99, weak effect (score: +); 0.4-0.69, moderate effect (score: ++); and 0.4 or less, strong effect (score: +++).

[5] = test system: CD4+ T cells in regional lymph node cells and spleen cells of EAE mice; experiment: EAE model, day 11 autopsy: CD4+ T cell proliferation (CFSE); assay type: in vivo, mouse
Protocol: On day 0, the 35-55 peptide (MOG35-55, Operon), a glycoprotein of myelin oligodendroglial cells, as an antigen was mixed with complete Freund's adjuvant (CFA, Difco) and then the mixture was subcutaneously administered at a dose of 200 μg/animal. Subsequently, pertussis toxin (Wako Pure Chemical Industries, Japan) was intraperitoneally administered at a dose of 200 ng/animal on day 1 and day 3, thereby inducing the onset of multiple sclerosis. During days 7 to 18, 14-DHE was intraperitoneally administered at a dose of 10 μg/animal once a day. To the vehicle group, the following solvent for 14-DHE was administered: 10% ethanol (Wako Pure Chemical Industries, Japan)/10% Cremophor (Wako Pure Chemical Industries, Japan)/80% PBS (Takara, Japan).
Mice were autopsied on day 11 (when inflammation was thought to take place in vivo) to obtain biochemical data.
(3) Regional lymph node cells and spleen cells were stained using the CellTrace CFSE Proliferation kit (Molecular Probes). The stained cells were seeded at a concentration of 1×10^6 cells/mL and then cultured for 3 days with stimulation with 2 μM MOG. Cells were recovered, stained with CD3-PerCP and CD4-APC, and then subjected to FACS analysis. Cell proliferation was evaluated as a proportion of cells with decreased CFSE fluorescence intensity in all cells.

SMILES: CC(C)[C@@H](C)/C=C/[C@@H](C)[C@H]1CC=C2C3=CC=C4C[C@@H](O)CC[C@]4(C)[C@H]3CC[C@@]21C [Sample 14-DHE, ergosta-5,7,14,22-tetraen-3β-ol]
- generation of Treg compared with the control [1]: about 2 times
- IFN-γ production (ELISA) [2]: significant decreases
- IL-6 production (ELISA) [2]: significant decreases
- IL-10 production (ELISA) [2]: no statistically significant difference was observed
- IL-17 production (ELISA) [2]: significant decreases
- TNF-α production (ELISA) [2]: significant decreases
- effective concentration on T cells lower compared with that of DCs ([3]; T cells vs DCs (1 μM)): ≥ 20 times
- proportion of CD25+FoxP3+ cells in CD4+ T cells ([3]; absence of TGF-β, 14-DHE 50-1000 nM, 5 days): no change
- increase in proportion of CD25+FoxP3+ cells compared with no 14-DHE ([3]; presence of TGF-β, 14-DHE 50 nM (lowest concentration), 5 days): ≥ 5 times
- duration of the effect ([4]; 14-DHE 3 μM): 72 h
- DC activation (CD86)-suppressing effect ([4]; 14-DHE 3 μM added for 5 or 6 days from initiation of differentiation): the degree of the effect significantly decreased
- DC activation (CD86)-suppressing effect ([4]; 14-DHE 3 μM added for 7 days starting from initiation of DC differentiation, LPS 5 ng/mL): strong effect
- DC activation (CD86)-suppressing effect ([4]; 14-DHE 3 μM addition begun on day 7 when DC differentiation was completed): strong effect
- DC activation (CD86)-suppressing effect ([4]; 14-DHE absent at the time of adding LPS): decrease in the effect was observed
- time within which the effect significantly decreased ([4]; addition begun on day 0 or on day 7): ≤ 72 h
- time required for 14-DHE to exhibit its effect ([4]; addition from initiation of DC differentiation): ≥ 7 days
- proliferation rate of CD4+ T cells in lymph node cells [5]: decreasing trend
- proliferation rate of CD4+ T cells in spleen cells ([5]; with or without re-stimulation with MOG antigen): significant decrease

— US9101566B2, “Fermentation product of cereal plant-derived material and immunomodulator” (KIRIN HOLDINGS KABUSHIKI KAISHA, priority 2009, dated 2015)
